Our source for the IC50 values is PubChem BioAssay AID624167 (Sanford-Burnham Center for Chemical Genomics, 2012).

Structures are written as SMILES. Activity calls are given as the source filed them.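 Rule for the calls: active = mean IC50 for reducing PEG3 promoter reporter signal at or below a set limit, with IC50 above the limit in both counter screens; inactive = the rest, including counter screen hits.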

Test [1] has as its system GAPDH. Put plainly: Peg3 promoter luciferase inhibitors, potency, dose response, cell-based, HeLa, CREF/GAPDH counter-screen panel (AID 624167). Particulars: CREF/GAPDH counter-screens. (A counterscreen serves to expose hits that act by an unwanted route or on another target.)
The subject of test [2] is Rat fibroblasts (CREF). The test is described as above. As to conditions: CREF/GAPDH counter-screens.
In test [3] the test system is PEG-3. Described as above. As to conditions: HeLa PEG-Prom luciferase reporter, overnight, CREF/GAPDH counter-screens.
Test [4] concerns the target PEG-3 (UniProt Q6IN02). Described as above. As to conditions: HeLa PEG-Prom luciferase reporter, overnight, CREF/GAPDH counter-screens, mean of runs.
Experiment in test [5]: as above
Particulars: CREF/GAPDH counter-screens; GAPDH; mean of runs.

The mark [6] stands for this setting: run 1, dose range 1, individual replicate IC50 per panel.
The mark [7] stands for this setting: run 2, dose range 1, individual replicate IC50 per panel.

PEG-3 (UniProt Q6IN02), sequence (Q6IN02 whole entry, looked up): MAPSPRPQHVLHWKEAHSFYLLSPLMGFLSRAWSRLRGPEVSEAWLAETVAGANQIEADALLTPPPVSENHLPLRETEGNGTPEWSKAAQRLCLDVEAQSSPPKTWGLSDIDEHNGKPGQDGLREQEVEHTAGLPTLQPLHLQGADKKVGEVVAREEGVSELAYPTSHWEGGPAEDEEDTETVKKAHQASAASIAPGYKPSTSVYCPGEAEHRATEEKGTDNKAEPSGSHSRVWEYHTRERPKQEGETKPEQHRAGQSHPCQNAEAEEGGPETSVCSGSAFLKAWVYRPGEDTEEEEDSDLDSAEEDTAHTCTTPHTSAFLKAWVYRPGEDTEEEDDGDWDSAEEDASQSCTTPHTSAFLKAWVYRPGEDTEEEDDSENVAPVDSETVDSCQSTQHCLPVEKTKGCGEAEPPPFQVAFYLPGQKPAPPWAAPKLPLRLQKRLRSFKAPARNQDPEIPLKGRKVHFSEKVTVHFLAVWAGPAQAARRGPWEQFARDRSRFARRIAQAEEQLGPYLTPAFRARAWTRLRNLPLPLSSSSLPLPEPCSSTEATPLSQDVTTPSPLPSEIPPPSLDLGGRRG

One may read the IC50 as the concentration needed to halve the response being measured. On to `CN=c1sc2c(n1C)C(=O)c1ccccc1C2=O`, for which the IC50 in test [1] (setting [6]) is 29.9 µM; in test [1] (setting [7]), 48.4 µM; in test [2] (mean of runs), 4.98 µM; in test [2] (setting [6]), 4.97 µM; in test [2] (setting [7]), 5 µM; in test [3] (setting [6]), 9.56 µM. The IC50 in test [3] (setting [7]) is 10.3 µM; in test [4], 9.93 µM. Moreover, the IC50 result in test [5] was “inactive”.
Take `O=C(O)c1ccc(CN2C(=O)c3cccc4c([N+](=O)[O-])ccc(c34)C2=O)cc1`: the IC50 in test [1] (setting [6]) was 21.9 µM; in test [1] (setting [7]) it was 23.4 µM; in test [2] (mean of runs) it was 31.5 µM; in test [2] (setting [6]), 29.5 µM; in test [2] (setting [7]), 33.4 µM; in test [3] (setting [6]) it was 12.1 µM. In addition, the IC50 was 8.2 µM in test [3] (setting [7]), 10.1 µM in test [4] and 22.7 µM in test [5].
On to `Cc1cc(Br)ccc1NC(=O)CNC(=O)Cn1ncc(Cl)c(Cl)c1=O`, for which the IC50 in test [1] (setting [6]) is 10.1 µM; in test [1] (setting [7]) it was 11.8 µM; in test [2] (mean of runs) it was 54.2 µM (inactive); in test [2] (setting [6]), 8.5 µM; in test [2] (setting [7]) it was above 100 µM; in test [3] (setting [6]) it was 8.31 µM. Also, the concentration for half-maximal inhibition (IC50) in test [3] (setting [7]) was 4.87 µM; in test [4], 6.59 µM; in test [5], 10.9 µM.
Turning to `CCSc1nc2ccccc2n1C(=O)/C=C\c1ccc(OC)c(OC)c1`, the IC50 is 14.2 µM in test [1] (setting [6]); 15 µM in test [1] (setting [7]); 72.8 µM (inactive) in test [2] (mean of runs); 45.7 µM in test [2] (setting [6]); above 100 µM in test [2] (setting [7]); 4.86 µM in test [3] (setting [6]). Further, the values for the IC50 in test [3] (setting [7]), in test [4] and in test [5] were 6.08 µM, 5.47 µM and 14.6 µM, respectively.
For the molecule `CC(C)(C)c1ccc(Oc2ccc(N)cc2)cc1`, the 50% inhibitory concentration (IC50) in test [1] (setting [6]) is 0.457 µM; in test [1] (setting [7]), 2.43 µM; in test [2] (mean of runs), 74.7 µM (inactive); in test [2] (setting [6]), 74.7 µM; in test [2] (setting [7]) it was above 100 µM; in test [3] (setting [6]), 4.88 µM. For the same molecule, the figures for the IC50 in test [3] (setting [7]), in test [4] and in test [5] were 4.1 µM, 4.49 µM and 1.44 µM, respectively.
As to `N=c1n(CC(=O)c2ccc([N+](=O)[O-])cc2)c2ccccc2n1Cc1ccc(Cl)cc1`, the IC50 in test [1] (setting [6]) is above 80 µM; in test [1] (setting [7]) it was 33.3 µM; in test [2] (mean of runs) it was 27 µM; in test [2] (setting [6]) it was 26.4 µM; in test [2] (setting [7]) it was 27.6 µM; in test [3] (setting [6]) it was 9.65 µM. The IC50 is 8.76 µM in test [3] (setting [7]) and 9.2 µM in test [4]. In test [5], the IC50 entry is “inactive”.
Consider `CCCCC(=O)NC(c1ccccc1OC)c1ccc2cccnc2c1O` (stereo unspecified), for which the IC50 in test [1] (setting [6]) was 36.5 µM; in test [1] (setting [7]) it was above 100 µM; in test [2] (mean of runs), > 100 µM (inactive); in test [2] (setting [6]), above 100 µM; in test [2] (setting [7]), above 100 µM; in test [3] (setting [6]), 3.35 µM. For the same molecule, the values for the IC50 in test [3] (setting [7]) and in test [4] were 17.8 µM and 10.6 µM, respectively. Further, in test [5], the IC50 entry is “inactive”.
Regarding `CN1OC[C@@H]2CN(S(=O)(=O)c3cccc(C(F)(F)F)c3)[C@H](c3ccc(-c4cc5ccccc5o4)cc3)C[C@@H]21`, the IC50 in test [1] (setting [6]) was 44.3 µM; in test [1] (setting [7]) it was 37.8 µM; in test [2] (mean of runs) it was > 100 µM (inactive); in test [2] (setting [6]), above 100 µM; in test [2] (setting [7]), above 100 µM; in test [3] (setting [6]), 18.7 µM. The figures for the IC50 in test [3] (setting [7]) and in test [4] were 1.06 µM and 9.9 µM, respectively. For the same molecule, in test [5], the IC50 entry was “inactive”.
Consider `CC(=O)NC(c1ccc(Cl)cc1Cl)c1ccc2cccnc2c1O` (stereo unspecified), for which the concentration for half-maximal inhibition (IC50) in test [1] (setting [6]) was 31.5 µM; in test [1] (setting [7]), 61.9 µM; in test [2] (mean of runs) it was > 100 µM (inactive); in test [2] (setting [6]), above 100 µM; in test [2] (setting [7]), above 100 µM; in test [3] (setting [6]) it was 0.852 µM. Moreover, the IC50 is 2.68 µM in test [3] (setting [7]) and 1.77 µM in test [4]. In addition, the IC50 result in test [5] was “inactive”.
